Where no end group is shown, it is not given here.
Test system: patients undergoing ERCP
Assay: Incidence and severity of post-ERCP pancreatitis, randomized double-blind placebo controlled study
Assay type: in vivo, human
Description: This was a prospectively randomized, parallel group, double-blind, placebo controlled study conducted at one center. This was the ideal study design for evaluation of the prophylactic use of sPS in ERCP to decrease the incidence of post-ERCP pancreatitis. Parallel group design was necessary because patients usually require only one ERCP and, in any case, the first procedure might have an unknown effect on the outcome of a subsequent ERCP. Double-blinding the study was necessary because a major component of the evaluation related to symptoms such as pain and nauseas, which are, in part, subjective for the patient. The final classification of each patient required an overall medical judgment by the investigator. In order for this to be as objective as possible, the assessor (Principal Investigator) had to be blinded. Placebo control with normal saline was required because there is no approved or medically accepted drug to prevent post-ERCP pancreatitis. Further, sterile normal saline, USP for injection was completely safe with no pharmacological effect and produced a clear, colorless solution, which was indistinguishable from reconstituted sPS.
Patients undergoing ERCP for medical reasons were the appropriate population to evaluate because only those requiring ERCP have the procedure and are subject to the known risk of post-ERCP pancreatitis. The patients had to meet all of the inclusion criteria to be enrolled in the study. […] Subjects were discontinued for the following reasons: (1) voluntary withdraw at subject's request; (2) noncompliance by subject to study procedures; (3) protocol violation such as discovery of pancreas divisum at the time of the ERCP, or (4) excessive toxicity from any study procedure or drug which in the judgment of the investigator makes continuation in the study contrary to the subject's medical interests. Subjects who discontinued from the study after receiving study drug were followed for safety and were replaced.
This study compared synthetic porcine secretin (sPS) at a dose of 16 mcg (8 mL) (24 mcg for procedures longer than 30 minutes) given as a slow IV push over one minute and an equal volume of physiologic sterile saline USP for injection. Subjects were randomly assigned to one of two treatment groups (sPS vs. saline placebo) based on a randomization schedule generated at ChiRhoClin, Inc (Burtonsville, Md.). […] The final syringe with an identical appearing clear, colorless solution of identical volume containing either reconstituted sPS or saline was then delivered to the investigator performing the ERCP. The randomization code assigned patients in a 1:1 manner between the two treatments and was balanced in blocks of 250 patients.
Incidence of post-ERCP pancreatitis (sPS vs. placebo) was evaluated as the primary efficacy variable in this study. Secondary efficacy variables included incidences of post-ERCP pancreatitis in the following sub-populations: (1) cannulation of CBD; (2) sphincterotomy of CBD; (3) cannulation of pancreatic duct; (4) sphincterotomy of pancreatic duct; (5) stent insertion and removal into CBD; (6) stent insertion and removal into pancreatic duct; (7) stone extraction (basket) from CBD; (8) stone extraction (balloon) from CBD; (9) manometry of CBD; (10) manometry of pancreatic duct; (11) pain scores pre and post ERCP (0-10 scale); (12) nausea scores pre and post ERCP (0-10 scale); (13) vomiting scores pre and post ERCP (0-10 scale); (14) return to baseline activity (pre-ERCP); and (15) return to work.
In addition, the severity of pancreatitis was graded as defined by Cotton (Cotton, PB Gastrointest. Endosc. 40(4):514-18 (1994)), using the following criteria: (1) Minimal—managed on an outpatient basis; (2) Mild—Required hospitalization ≦3 days; (3) Moderate—required hospitalization for 4 to 10 days; and (4) Severe—required hospitalization for >10 days, ICU admission, surgical intervention or death. […]

[1] = of 44 cases, hospitalization 4 to 10 days
[2] = of 44 cases, hospitalization >10 days, ICU, surgery or death
[3] = of 44 cases, hospitalization ≦3 days
[4] = of 44 cases, managed on an outpatient basis
[5] = overall, N = 488, 16 mcg IV (24 mcg if >30 min), p 0.0161 vs placebo
[6] = sub-population Cannulation of CBD, N = 361
[7] = sub-population Cannulation of CBD, N = 361, p 0.0010
[8] = sub-population Cannulation of Pancreatic Duct, N = 220
[9] = sub-population Cannulation of Pancreatic Duct, N = 220, p 0.1237
[10] = sub-population Manometry of CBD, N = 19
[11] = sub-population Manometry of CBD, N = 19, p 0.0819
[12] = sub-population Manometry of Pancreatic Duct, N = 11
[13] = sub-population Manometry of Pancreatic Duct, N = 11, p 0.3665
[14] = sub-population Sphincterotomy of CBD, N = 140
[15] = sub-population Sphincterotomy of CBD, N = 140, p 0.0001
[16] = sub-population Sphincterotomy of Pancreatic Duct, N = 26
[17] = sub-population Sphincterotomy of Pancreatic Duct, N = 26, p 0.1666
[18] = sub-population Stent Insertion into CBD, N = 108
[19] = sub-population Stent Insertion into CBD, N = 108, p 0.0856
[20] = sub-population Stent Insertion into Pancreatic Duct, N = 23
[21] = sub-population Stent Insertion into Pancreatic Duct, N = 23, p 1.0000
[22] = sub-population Stent Removal from CBD, N = 58
[23] = sub-population Stent Removal from CBD, N = 58, p 0.6185
[24] = sub-population Stent Removal from Pancreatic Duct, N = 17
[25] = sub-population Stent Removal from Pancreatic Duct, N = 17, p 1.0000
[26] = sub-population Stone Extraction (Balloon), N = 55
[27] = sub-population Stone Extraction (Balloon), N = 55, p 1.0000
[28] = sub-population Stone Extraction (Basket), N = 35
[29] = sub-population Stone Extraction (Basket), N = 35, p 0.2298

synthetic porcine secretin (HSDGTFTSELSRLRDSARLQRLLQGLV-NH2; ends and bridges not checked; UniProt P63298 33-59, looked up) [SPS, synthetic form of porcine secretin, a 27 amino acid gastrointestinal peptide hormone]
Post-ERCP Pancreatitis Severity Total (%) (N = 488/44): 100.0% | Post-ERCP Pancreatitis Severity Total: number of cases (N = 488/44): 44 | Post-ERCP Pancreatitis Severity Unknown (%) (of 44 cases): 15.91% | Post-ERCP Pancreatitis Severity Unknown: number of cases (of 44 cases): 7 | Post-ERCP Pancreatitis Severity Moderate (%) [1]: 20.45% | Post-ERCP Pancreatitis Severity Moderate: number of cases [1]: 9 | Post-ERCP Pancreatitis Severity Severe (%) [2]: 2.27% | Post-ERCP Pancreatitis Severity Severe: number of cases [2]: 1 | Post-ERCP Pancreatitis Severity Mild (%) [3]: 31.82% | Post-ERCP Pancreatitis Severity Mild: number of cases [3]: 14 | Post-ERCP Pancreatitis Severity Minimal (%) [4]: 29.55% | Post-ERCP Pancreatitis Severity Minimal: number of cases [4]: 13 | Incidence of Post-ERCP Pancreatitis, No (%) (overall, N = 488, 16 mcg IV): 90.98% | Incidence of Post-ERCP Pancreatitis, No: number of patients (overall, N = 488, 16 mcg IV): 444 | Incidence of Post-ERCP Pancreatitis, Yes (%) [5]: 9.02% | Incidence of Post-ERCP Pancreatitis, Yes: number of patients [5]: 44 | magnitude of the decrease in the frequency of post-ERCP pancreatitis (relative to placebo, 979 patients, p=0.0137): 36.2% | Post-ERCP Pancreatitis No (%) [6]: 92.52% | Post-ERCP Pancreatitis No: number of patients [6]: 334 | Post-ERCP Pancreatitis Yes (%) [7]: 7.48% | Post-ERCP Pancreatitis Yes: number of patients [7]: 27 | Post-ERCP Pancreatitis No (%) [8]: 86.36% | Post-ERCP Pancreatitis No: number of patients [8]: 190 | Post-ERCP Pancreatitis Yes (%) [9]: 13.64% | Post-ERCP Pancreatitis Yes: number of patients [9]: 30 | Post-ERCP Pancreatitis No (%) [10]: 78.95% | Post-ERCP Pancreatitis No: number of patients [10]: 15 | Post-ERCP Pancreatitis Yes (%) [11]: 21.05% | Post-ERCP Pancreatitis Yes: number of patients [11]: 4 | Post-ERCP Pancreatitis No (%) [12]: 54.58% | Post-ERCP Pancreatitis No: number of patients [12]: 6 | Post-ERCP Pancreatitis Yes (%) [13]: 45.45% | Post-ERCP Pancreatitis Yes: number of patients [13]: 5 | Post-ERCP Pancreatitis No (%) [14]: 95.00% | Post-ERCP Pancreatitis No: number of patients [14]: 133 | Post-ERCP Pancreatitis Yes (%) [15]: 5.00% | Post-ERCP Pancreatitis Yes: number of patients [15]: 7 | Post-ERCP Pancreatitis No (%) [16]: 57.85% | Post-ERCP Pancreatitis No: number of patients [16]: 14 | Post-ERCP Pancreatitis Yes (%) [17]: 46.15% | Post-ERCP Pancreatitis Yes: number of patients [17]: 12 | Post-ERCP Pancreatitis No (%) [18]: 97.22% | Post-ERCP Pancreatitis No: number of patients [18]: 105 | Post-ERCP Pancreatitis Yes (%) [19]: 2.78% | Post-ERCP Pancreatitis Yes: number of patients [19]: 3 | Post-ERCP Pancreatitis No (%) [20]: 78.26% | Post-ERCP Pancreatitis No: number of patients [20]: 18 | Post-ERCP Pancreatitis Yes (%) [21]: 21.74% | Post-ERCP Pancreatitis Yes: number of patients [21]: 5 | Post-ERCP Pancreatitis Yes (%) (sub-population Stent Insertion into Pancreatic Duct, N = 23, p 1.0000, listed as sPS): 21.7% | Post-ERCP Pancreatitis No (%) [22]: 98.28% | Post-ERCP Pancreatitis No: number of patients [22]: 57 | Post-ERCP Pancreatitis Yes (%) [23]: 1.72% | Post-ERCP Pancreatitis Yes: number of patients [23]: 1 | Post-ERCP Pancreatitis No (%) [24]: 88.24% | Post-ERCP Pancreatitis No: number of patients [24]: 15 | Post-ERCP Pancreatitis Yes (%) [25]: 11.76% | Post-ERCP Pancreatitis Yes: number of patients [25]: 2 | Post-ERCP Pancreatitis No (%) [26]: 92.73% | Post-ERCP Pancreatitis No: number of patients [26]: 51 | Post-ERCP Pancreatitis Yes (%) [27]: 7.27% | Post-ERCP Pancreatitis Yes: number of patients [27]: 4 | Post-ERCP Pancreatitis No (%) [28]: 97.14% | Post-ERCP Pancreatitis No: number of patients [28]: 34 | Post-ERCP Pancreatitis Yes (%) [29]: 2.86% | Post-ERCP Pancreatitis Yes: number of patients [29]: 1

Source: patent US7947285B2, “Methods for preventing post endoscopic retrograde cholangiopancreatography pancreatitis” (priority 2003, dated 2011)
